Earlier results, collected in patent KR20140119363A, “보리코나졸이 함유된 안정화된 조성물” (에스케이케미칼주식회사, priority 2013, dated 2014).

Experiments:
[1] = degradation product triazole acetophenone formed
[2] = in vivo
[3] = test system: deep-seated mycosis [심재성 진균증]

## C[C@@H](c1ncncc1F)[C@](O)(Cn1cncn1)c1ccc(F)cc1F [보리코나졸]
[1]
  stability to moisture and heat: 수분 및 열에 불안정

## C[C@@H]1[C@H](O)[C@@H](C)/C=C/C=C/C=C/C=C/C=C/C=C/C=C/[C@H](O[C@@H]2O[C@H](C)[C@@H](O)[C@H](N)[C@@H]2O)C[C@@H]2O[C@](O)(C[C@@H](O)C[C@@H](O)[C@H](O)CC[C@@H](O)C[C@@H](O)CC(=O)O[C@H]1C)C[C@H](O)[C@H]2C(=O)O [암포테리신 B]
[2]
  nephrotoxicity: 심각한 문제
[3]; overall average
  response rate: ~34%

## CCC(C)n1ncn(-c2ccc(N3CCN(c4ccc(OCC5COC(Cn6cncn6)(c6ccc(Cl)cc6Cl)O5)cc4)CC3)cc2)c1=O (stereo not shown) [이트라코나졸]
[3]; in vivo
  treatment success rate: 그다지 높지 않은
